The values that follow come from patent US20170354645A1, “METHODS FOR TREATING KIDNEY DISORDERS” (Eli Lilly and Company, priority 2014, published 2017).

The nature of data set [1]: serum concentration in remnant kidney mice. The data set is classed as in vivo. As to conditions: 129/SvEv, mouse, week 4 of dosing, 24 hours after a 10 mg/kg oral dose, once daily. As to the method: (§1) The oral vehicle for testing the compound of Formula I is 5% Kolliphor® HS 15, 5% EtOH, NaCMC 1%/SLS 0.5%/Antifoam 0.05%/Povidone 0.085% from Ricca Chemical Company. The sham group is fed a conventional diet (Purina Formulab Diet 5008) and is not dosed with vehicle or the compound of Formula I during the dosing portion of the study. One of the remaining two groups is orally dosed vehicle once daily (10 ml/kg), and the other group is orally dosed once daily with the compound of Formula I at 10 mg/kg, in vehicle. Both dosing groups receive a conventional diet (Purina Formulab Diet 5008) during the dosing portion of the study.
(§2) Spot urine samples are collected on day −7 prior to the dosing portion of the study. Urine samples are taken weekly during the dosing portion of the study. Body weights are measured on days 15, 29, 43, 57, 64, 71, and 78. Blood samples are taken at week 4 of the dosing portion of the study a well as at the study termination (day 84). At week 4 of the dosing portion of the study, the mean serum concentration of the compound of Formula I 24 hours after a 10 mg/kg dose is 49±66 ng/ml.

Data set [2] concerns mouse remnant kidney model. Kind of data set: mouse remnant kidney model (5/6th nephrectomy) of chronic renal failure. The format is in vivo. The note with it: 10 mg/kg orally once daily. As to the method:
The purpose of this assay is to analyze the compound of Formula I in a mouse chronic renal failure model, and particularly the ability to improve albuminuria and renal histopathological lesions. This assay is known as the mouse remnant kidney model, where following a unilateral nephrectomy, partial surgical removal of approximately ⅓ of the remaining kidney is carried out to replicate chronic renal failure. This model is sometimes also referred to as a “5/6th nephrectomy” model that was originally developed in rat. A description of this model may be found in published US patent application US 2014/0271675 (Qi, et al.) and (Leelahavanichkul, et al. (2010) Kidney Int. 78(11): 1136-1153.
Thirty-five eight to nine week old mice (strain 129/SvEv from Taconic) are employed in the model, and all have surgeries. A sham group having five mice have surgeries where the kidneys are not removed. The mice in the remaining two groups having fifteen mice each undergo remnant surgery. The surgeries take place approximately three weeks prior to the dosing portion of the study. The dosing portion of the study is 85 days long.
as §1, §2

Setting [3] is: renal morphology, compared with vehicle treatment.

For `Cc1cc(OCc2c(-c3ccccc3OC(F)(F)F)noc2C2CC2)ccc1-c1ccc2c(C(=O)O)csc2c1` [compound of Formula I, 6-{4-[5-Cyclopropyl-3-(2-trifluoromethoxy-phenyl)-isoxazol-4-ylmethoxy]-2-methyl-phenyl}-benzo[b]thiophene-3-carboxylic acid], the concentration at 24 h in data set [1] amounted to 49 ± 66 ng/mL. Further, in data set [2] (remnant mice, observed within 2 weeks, persists through end of 85-day dosing), the “reduction in urine ACR (albumin/creatinine ratio)” value is given as 32-38%. Also, in data set [2] (renal morphology), the interstitial inflammation entry was “mildly reduced” and the tubular regeneration result was “mildly reduced”. In data set [2] (setting [3]), the “incidence and severity of glumerulosclerosis” value is on record as “notably reduced”; the “incidence and severity of tubular protein” value is “notably reduced”; the “incidence of tubular changes (dilation, atrophy)” value is “reduced”.
